From the NIST ThermoML archive (doi:10.1016/j.tca.2004.08.013)
± gives the expanded uncertainty stated by the source.

Experiment: xn = mol fraction of the nth substance listed
Conditions: 101.3 kPa, Liquid

With `CCN(CC)CC` [triethylamine] + C1COCCO1 the mass density (303.15 K, x1 = 0.0138) was 1015.32 ± 0.55 kg/m3, the viscosity (303.15 K, x1 = 0.0138) was 1.059 ± 0.014 mPa·s and the mass density (303.15 K, x1 = 0.0232) was 1010.65 ± 0.54 kg/m3. It also gave a viscosity (303.15 K, x1 = 0.0232) of 1.042 ± 0.014 mPa·s, a mass density (303.15 K, x1 = 0.0349) of 1004.86 ± 0.53 kg/m3 and a viscosity (303.15 K, x1 = 0.0349) of 1.018 ± 0.014 mPa·s. It also gave a mass density (303.15 K, x1 = 0.0453) of 999.87 ± 0.52 kg/m3, a viscosity (303.15 K, x1 = 0.0453) of 0.998 ± 0.014 mPa·s and a mass density (303.15 K, x1 = 0.0551) of 995.17 ± 0.52 kg/m3. For the same compound, the viscosity (303.15 K, x1 = 0.0551) was 0.98 ± 0.013 mPa·s, the mass density (303.15 K, x1 = 0.0691) was 988.57 ± 0.52 kg/m3 and the viscosity (303.15 K, x1 = 0.0691) was 0.955 ± 0.013 mPa·s. The mass density (303.15 K, x1 = 0.0803) was 983.41 ± 0.52 kg/m3, the viscosity (303.15 K, x1 = 0.0803) was 0.932 ± 0.013 mPa·s and the mass density (303.15 K, x1 = 0.0909) was 978.57 ± 0.52 kg/m3. It also gave a viscosity (303.15 K, x1 = 0.0909) of 0.914 ± 0.012 mPa·s, a mass density (303.15 K, x1 = 0.1006) of 974.22 ± 0.52 kg/m3 and a viscosity (303.15 K, x1 = 0.1006) of 0.899 ± 0.012 mPa·s. The mass density (303.15 K, x1 = 0.1128) was 968.78 ± 0.52 kg/m3 and the viscosity (303.15 K, x1 = 0.1128) was 0.877 ± 0.012 mPa·s.

In the case of `CCCN(CCC)CCC` [tripropylamine] + ClC(Cl)(Cl)Cl, the mass density (303.15 K, x1 = 0.0103) is reported as 1558.08 ± 1.5 kg/m3, the viscosity (303.15 K, x1 = 0.0103) is reported as 0.848 ± 0.012 mPa·s and the mass density (303.15 K, x1 = 0.0203) is reported as 1542.01 ± 1.5 kg/m3. For the same compound, the viscosity (303.15 K, x1 = 0.0203) was 0.84 ± 0.012 mPa·s, the mass density (303.15 K, x1 = 0.0304) was 1526.35 ± 1.4 kg/m3 and the viscosity (303.15 K, x1 = 0.0304) was 0.829 ± 0.011 mPa·s. The mass density (303.15 K, x1 = 0.0398) was 1511.85 ± 1.4 kg/m3, the viscosity (303.15 K, x1 = 0.0398) was 0.819 ± 0.011 mPa·s and the mass density (303.15 K, x1 = 0.0497) was 1496.93 ± 1.4 kg/m3. The viscosity (303.15 K, x1 = 0.0497) was 0.811 ± 0.011 mPa·s, the mass density (303.15 K, x1 = 0.0606) was 1480.86 ± 1.4 kg/m3 and the viscosity (303.15 K, x1 = 0.0606) was 0.802 ± 0.011 mPa·s. The mass density (303.15 K, x1 = 0.0695) was 1468.02 ± 1.3 kg/m3, the viscosity (303.15 K, x1 = 0.0695) was 0.795 ± 0.011 mPa·s and the mass density (303.15 K, x1 = 0.0786) was 1455.03 ± 1.3 kg/m3. The viscosity (303.15 K, x1 = 0.0786) was 0.788 ± 0.011 mPa·s, the mass density (303.15 K, x1 = 0.0893) was 1440.17 ± 1.3 kg/m3 and the viscosity (303.15 K, x1 = 0.0893) was 0.78 ± 0.011 mPa·s. For the same compound, the mass density (313.15 K, x1 = 0.0103) was 1538.54 ± 1.5 kg/m3, the viscosity (313.15 K, x1 = 0.0103) was 0.754 ± 0.011 mPa·s and the mass density (313.15 K, x1 = 0.0203) was 1522.71 ± 1.4 kg/m3. It also gave a viscosity (313.15 K, x1 = 0.0203) of 0.747 ± 0.01 mPa·s, a mass density (313.15 K, x1 = 0.0304) of 1507.24 ± 1.4 kg/m3 and a viscosity (313.15 K, x1 = 0.0304) of 0.739 ± 0.01 mPa·s. For the same compound, the mass density (313.15 K, x1 = 0.0398) was 1492.94 ± 1.4 kg/m3, the viscosity (313.15 K, x1 = 0.0398) was 0.733 ± 0.01 mPa·s and the mass density (313.15 K, x1 = 0.0497) was 1478.28 ± 1.4 kg/m3. It also gave a viscosity (313.15 K, x1 = 0.0497) of 0.726 ± 0.01 mPa·s, a mass density (313.15 K, x1 = 0.0606) of 1462.46 ± 1.3 kg/m3 and a viscosity (313.15 K, x1 = 0.0606) of 0.718 ± 0.01 mPa·s. It also gave a mass density (313.15 K, x1 = 0.0695) of 1449.76 ± 1.3 kg/m3, a viscosity (313.15 K, x1 = 0.0695) of 0.712 ± 0.01 mPa·s and a mass density (313.15 K, x1 = 0.0786) of 1437.01 ± 1.3 kg/m3. The viscosity (313.15 K, x1 = 0.0786) was 0.706 ± 0.01 mPa·s, the mass density (313.15 K, x1 = 0.0893) was 1422.3 ± 1.2 kg/m3 and the viscosity (313.15 K, x1 = 0.0893) was 0.699 ± 0.01 mPa·s.

`CCCCNCCCC` [dibutylamine] + ClC(Cl)(Cl)Cl showed a mass density (303.15 K, x1 = 0.0105) of 1560.01 ± 1.5 kg/m3, a viscosity (303.15 K, x1 = 0.0105) of 0.852 ± 0.012 mPa·s and a mass density (303.15 K, x1 = 0.0201) of 1546.59 ± 1.5 kg/m3. For the same compound, the viscosity (303.15 K, x1 = 0.0201) was 0.851 ± 0.012 mPa·s, the mass density (303.15 K, x1 = 0.0298) was 1533.23 ± 1.5 kg/m3 and the viscosity (303.15 K, x1 = 0.0298) was 0.85 ± 0.012 mPa·s. For the same compound, the mass density (303.15 K, x1 = 0.0396) was 1519.86 ± 1.4 kg/m3, the viscosity (303.15 K, x1 = 0.0396) was 0.85 ± 0.012 mPa·s and the mass density (303.15 K, x1 = 0.049) was 1507.12 ± 1.4 kg/m3. The viscosity (303.15 K, x1 = 0.049) was 0.849 ± 0.012 mPa·s, the mass density (303.15 K, x1 = 0.0583) was 1494.77 ± 1.4 kg/m3 and the viscosity (303.15 K, x1 = 0.0583) was 0.847 ± 0.012 mPa·s. For the same compound, the mass density (303.15 K, x1 = 0.0696) was 1480 ± 1.4 kg/m3, the viscosity (303.15 K, x1 = 0.0696) was 0.846 ± 0.012 mPa·s and the mass density (303.15 K, x1 = 0.0789) was 1467.95 ± 1.3 kg/m3. The viscosity (303.15 K, x1 = 0.0789) was 0.845 ± 0.012 mPa·s, the mass density (303.15 K, x1 = 0.089) was 1455.15 ± 1.3 kg/m3 and the viscosity (303.15 K, x1 = 0.089) was 0.845 ± 0.012 mPa·s. For the same compound, the mass density (313.15 K, x1 = 0.0105) was 1540.58 ± 1.5 kg/m3, the viscosity (313.15 K, x1 = 0.0105) was 0.761 ± 0.011 mPa·s and the mass density (313.15 K, x1 = 0.0201) was 1527.31 ± 1.4 kg/m3. It also gave a viscosity (313.15 K, x1 = 0.0201) of 0.76 ± 0.011 mPa·s, a mass density (313.15 K, x1 = 0.0298) of 1514.26 ± 1.4 kg/m3 and a viscosity (313.15 K, x1 = 0.0298) of 0.761 ± 0.011 mPa·s. It also gave a mass density (313.15 K, x1 = 0.0396) of 1501.14 ± 1.4 kg/m3, a viscosity (313.15 K, x1 = 0.0396) of 0.76 ± 0.011 mPa·s and a mass density (313.15 K, x1 = 0.049) of 1488.59 ± 1.4 kg/m3. For the same compound, the viscosity (313.15 K, x1 = 0.049) was 0.759 ± 0.011 mPa·s, the mass density (313.15 K, x1 = 0.0583) was 1476.4 ± 1.3 kg/m3 and the viscosity (313.15 K, x1 = 0.0583) was 0.757 ± 0.011 mPa·s. The mass density (313.15 K, x1 = 0.0696) was 1461.9 ± 1.3 kg/m3, the viscosity (313.15 K, x1 = 0.0696) was 0.755 ± 0.011 mPa·s and the mass density (313.15 K, x1 = 0.0789) was 1450.12 ± 1.3 kg/m3. The viscosity (313.15 K, x1 = 0.0789) was 0.754 ± 0.011 mPa·s, the mass density (313.15 K, x1 = 0.089) was 1437.55 ± 1.3 kg/m3 and the viscosity (313.15 K, x1 = 0.089) was 0.752 ± 0.01 mPa·s.

`CCCN` [propan-1-amine] + ClC(Cl)(Cl)Cl gave a mass density (303.15 K, x1 = 0.0071) of 1569.84 ± 1.5 kg/m3, a viscosity (303.15 K, x1 = 0.0071) of 0.859 ± 0.012 mPa·s and a mass density (303.15 K, x1 = 0.0184) of 1561.86 ± 1.5 kg/m3. For the same compound, the viscosity (303.15 K, x1 = 0.0184) was 0.866 ± 0.012 mPa·s, the mass density (303.15 K, x1 = 0.0285) was 1554.57 ± 1.5 kg/m3 and the viscosity (303.15 K, x1 = 0.0285) was 0.873 ± 0.012 mPa·s. It also gave a mass density (303.15 K, x1 = 0.0386) of 1547.37 ± 1.5 kg/m3, a viscosity (303.15 K, x1 = 0.0386) of 0.876 ± 0.012 mPa·s and a mass density (303.15 K, x1 = 0.0479) of 1540.78 ± 1.5 kg/m3. For the same compound, the viscosity (303.15 K, x1 = 0.0479) was 0.88 ± 0.012 mPa·s, the mass density (303.15 K, x1 = 0.0574) was 1533.92 ± 1.4 kg/m3 and the viscosity (303.15 K, x1 = 0.0574) was 0.885 ± 0.012 mPa·s. It also gave a mass density (303.15 K, x1 = 0.0661) of 1527.48 ± 1.4 kg/m3, a viscosity (303.15 K, x1 = 0.0661) of 0.885 ± 0.012 mPa·s and a mass density (303.15 K, x1 = 0.0748) of 1521.24 ± 1.4 kg/m3. The viscosity (303.15 K, x1 = 0.0748) was 0.888 ± 0.012 mPa·s, the mass density (303.15 K, x1 = 0.0841) was 1514.3 ± 1.4 kg/m3 and the viscosity (303.15 K, x1 = 0.0841) was 0.892 ± 0.012 mPa·s. For the same compound, the mass density (313.15 K, x1 = 0.0071) was 1550.16 ± 1.5 kg/m3, the viscosity (313.15 K, x1 = 0.0071) was 0.761 ± 0.011 mPa·s and the mass density (313.15 K, x1 = 0.0184) was 1542.3 ± 1.5 kg/m3. The viscosity (313.15 K, x1 = 0.0184) was 0.763 ± 0.011 mPa·s, the mass density (313.15 K, x1 = 0.0285) was 1535.07 ± 1.5 kg/m3 and the viscosity (313.15 K, x1 = 0.0285) was 0.764 ± 0.011 mPa·s. For the same compound, the mass density (313.15 K, x1 = 0.0386) was 1527.92 ± 1.4 kg/m3, the viscosity (313.15 K, x1 = 0.0386) was 0.765 ± 0.011 mPa·s and the mass density (313.15 K, x1 = 0.0479) was 1521.37 ± 1.4 kg/m3. It also gave a viscosity (313.15 K, x1 = 0.0479) of 0.768 ± 0.011 mPa·s, a mass density (313.15 K, x1 = 0.0574) of 1514.52 ± 1.4 kg/m3 and a viscosity (313.15 K, x1 = 0.0574) of 0.77 ± 0.011 mPa·s. The mass density (313.15 K, x1 = 0.0661) was 1508.11 ± 1.4 kg/m3, the viscosity (313.15 K, x1 = 0.0661) was 0.772 ± 0.011 mPa·s and the mass density (313.15 K, x1 = 0.0748) was 1501.94 ± 1.4 kg/m3. It also gave a viscosity (313.15 K, x1 = 0.0748) of 0.774 ± 0.011 mPa·s, a mass density (313.15 K, x1 = 0.0841) of 1495.14 ± 1.4 kg/m3 and a viscosity (313.15 K, x1 = 0.0841) of 0.775 ± 0.011 mPa·s.
